Assay results as given in ChEMBL document CHEMBL1152959, “Design, synthesis and dopamine D4 receptor binding activities of new N-heteroaromatic 5/6-ring Mannich bases” (Bioorg Med Chem, 2009).
pKi: −log10 of the molar value.

How the values were obtained:
D(4) dopamine receptor = target: T1, D(4) dopamine receptor (Homo sapiens, UniProt P21917); test: Displacement of [3H]spiroperidol from human cloned dopamine D4.4 receptor expressed in CHO cells; assay type: cell-based
T1 sequence (P21917 whole entry): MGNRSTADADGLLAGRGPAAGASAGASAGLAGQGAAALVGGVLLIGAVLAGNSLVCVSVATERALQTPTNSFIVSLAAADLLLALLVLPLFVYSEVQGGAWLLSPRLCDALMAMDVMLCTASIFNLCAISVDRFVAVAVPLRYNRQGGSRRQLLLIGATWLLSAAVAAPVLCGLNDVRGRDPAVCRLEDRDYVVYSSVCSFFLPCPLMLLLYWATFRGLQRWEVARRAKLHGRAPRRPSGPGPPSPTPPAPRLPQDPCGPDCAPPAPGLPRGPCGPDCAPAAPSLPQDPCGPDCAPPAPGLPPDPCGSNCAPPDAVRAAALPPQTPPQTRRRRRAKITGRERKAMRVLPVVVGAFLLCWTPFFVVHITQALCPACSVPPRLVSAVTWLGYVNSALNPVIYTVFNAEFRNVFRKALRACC

D(1A) dopamine receptor = D(1A) dopamine receptor (Bos taurus, UniProt Q95136)
D(1A) dopamine receptor, sequence (Q95136 whole entry): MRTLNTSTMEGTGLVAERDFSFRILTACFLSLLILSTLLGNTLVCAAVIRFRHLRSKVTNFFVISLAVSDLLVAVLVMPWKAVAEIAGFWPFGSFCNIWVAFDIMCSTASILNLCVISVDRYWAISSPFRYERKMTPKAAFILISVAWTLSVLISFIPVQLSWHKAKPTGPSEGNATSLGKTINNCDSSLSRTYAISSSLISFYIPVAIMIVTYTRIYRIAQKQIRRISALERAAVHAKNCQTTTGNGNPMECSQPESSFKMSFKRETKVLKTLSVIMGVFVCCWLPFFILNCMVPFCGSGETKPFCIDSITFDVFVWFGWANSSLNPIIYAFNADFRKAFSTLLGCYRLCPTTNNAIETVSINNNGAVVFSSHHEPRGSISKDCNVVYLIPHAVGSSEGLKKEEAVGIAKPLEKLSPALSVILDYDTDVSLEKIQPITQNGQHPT
Description: Displacement of [3H]SCH23390 from bovine dopamine D1 receptor

D(3) dopamine receptor = D(3) dopamine receptor (Homo sapiens, UniProt P35462); test: biochemical
D(3) dopamine receptor, sequence (P35462 whole entry): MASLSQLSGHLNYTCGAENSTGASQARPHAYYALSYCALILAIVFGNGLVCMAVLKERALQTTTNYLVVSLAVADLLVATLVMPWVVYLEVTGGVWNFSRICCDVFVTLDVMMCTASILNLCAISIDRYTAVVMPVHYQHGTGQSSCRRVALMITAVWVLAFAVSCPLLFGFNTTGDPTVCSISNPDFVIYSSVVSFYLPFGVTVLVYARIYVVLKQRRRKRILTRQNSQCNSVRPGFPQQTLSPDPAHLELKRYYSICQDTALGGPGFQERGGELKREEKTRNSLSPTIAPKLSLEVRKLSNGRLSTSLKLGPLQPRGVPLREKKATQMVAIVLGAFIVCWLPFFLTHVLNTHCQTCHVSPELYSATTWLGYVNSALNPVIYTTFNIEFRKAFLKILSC
Description: Displacement of [3H]spiroperidol from human cloned dopamine D3 receptor expressed in CHO cells

D(2) dopamine receptor [1] = target: T2, D(2) dopamine receptor (Homo sapiens, UniProt P14416); test: biochemical
T2 sequence (P14416 whole entry): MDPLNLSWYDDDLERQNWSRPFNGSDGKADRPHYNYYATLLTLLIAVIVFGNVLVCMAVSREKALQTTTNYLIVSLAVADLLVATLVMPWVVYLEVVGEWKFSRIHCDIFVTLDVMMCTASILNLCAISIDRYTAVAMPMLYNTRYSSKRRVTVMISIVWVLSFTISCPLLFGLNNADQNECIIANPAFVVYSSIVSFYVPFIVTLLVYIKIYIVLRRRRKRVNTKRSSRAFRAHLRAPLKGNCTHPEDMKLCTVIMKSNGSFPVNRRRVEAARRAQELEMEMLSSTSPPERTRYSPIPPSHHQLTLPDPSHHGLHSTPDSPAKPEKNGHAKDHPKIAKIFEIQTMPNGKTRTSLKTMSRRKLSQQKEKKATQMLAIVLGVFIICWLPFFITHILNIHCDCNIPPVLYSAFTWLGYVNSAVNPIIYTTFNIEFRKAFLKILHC
Description: Displacement of [3H]spiroperidol from human cloned dopamine D2 short receptor expressed in CHO cells

D(2) dopamine receptor [2] = target: T2, D(2) dopamine receptor; test: biochemical; remark: listed apart in the source
Description: Displacement of [3H]SCH23390 from human cloned dopamine D2 long receptor expressed in CHO cells

[3] = target: T3, D(4) dopamine receptor (Homo sapiens) (UniProt P21917); test: Displacement of [3H]spiperone from human cloned dopamine D4.4 receptor expressed in CHO cells at 100 nM; assay type: cell-based
T3 sequence (whole entry): T1 sequence (P21917 whole entry)

[4] = target: D(1A) dopamine receptor (Sus scrofa) (UniProt P50130); test: Displacement of [3H]SCH23390 from pig dopamine D1 receptor at 100 nM
D(1A) dopamine receptor (Sus scrofa), sequence (P50130 whole entry): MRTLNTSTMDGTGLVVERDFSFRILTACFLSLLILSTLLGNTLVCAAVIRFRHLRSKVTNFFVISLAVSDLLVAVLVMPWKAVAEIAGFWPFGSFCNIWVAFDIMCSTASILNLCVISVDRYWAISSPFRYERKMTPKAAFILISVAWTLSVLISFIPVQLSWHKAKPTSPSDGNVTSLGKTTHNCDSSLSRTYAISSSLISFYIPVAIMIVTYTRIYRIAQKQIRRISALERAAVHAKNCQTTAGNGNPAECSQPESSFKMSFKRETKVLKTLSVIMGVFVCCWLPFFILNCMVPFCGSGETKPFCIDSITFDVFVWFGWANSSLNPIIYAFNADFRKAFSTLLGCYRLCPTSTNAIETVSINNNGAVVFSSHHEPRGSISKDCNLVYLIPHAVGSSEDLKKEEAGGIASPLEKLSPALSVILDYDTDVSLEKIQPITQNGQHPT

D(2) dopamine receptor [5] = target: T2, D(2) dopamine receptor; test: Displacement of [3H]spiperone from human cloned dopamine D2 long receptor expressed in CHO cells at 100 nM; assay type: cell-based

| SMILES | pKi (D(4) dopamine receptor) | pKi (D(1A) dopamine receptor) | pKi (D(3) dopamine receptor) | pKi (D(2) dopamine receptor [1]) | pKi (D(2) dopamine receptor [2]) | Activity [3] | Activity [4] | Activity (D(2) dopamine receptor [5]) |
| --- | --- | --- | --- | --- | --- | --- | --- | --- |
| Cc1cc2nc(C)c(CN3CCN(c4ccc(Cl)c(Cl)c4)CC3)n2c(C)n1 | 7.68 | 5.68 | 5.89 | 5.26 | 5.48 |  |  |  |
| COc1ccccc1N1CCN(Cc2c(C)nc3cc(C)ncn23)CC1 | 7.41 | 4.23 | 4.17 | 4.28 | 4.40 | 20% | 0% | 0% |
| Cn1c(N2CCCC2)nc2c(CN3CCN(c4ccc(F)cc4)CC3)c[nH]c2c1=O | 7.80 | 6.80 | 6.20 | 6.40 | 6.08 |  |  |  |
| Cc1cc2ncc(CN3CCN(c4ccccn4)CC3)n2cn1 |  |  |  |  |  | 0% | 0% | 0% |
| COc1ccc(N2CCN(Cc3cnc4ccncn34)CC2)cc1 |  |  |  |  |  | 0% | 0% | 0% |
| Clc1nccc2c(CN3CCN(c4ccccc4)CC3)c[nH]c12 | 8.19 | 5.17 | 5.21 | 5.54 | 5.59 |  |  |  |
| COc1ccccc1N1CCN(Cc2cc3c(=O)[nH]c(N(C)C)nc3[nH]2)CC1 | 8.62 | 5.08 | 6.02 | 6.77 | 6.89 | 60% | 20% | 20% |
| Cn1c(N2CCCC2)nc2c(CN3CCN(c4ccccc4)CC3)c[nH]c2c1=O | 8.42 | 6.60 | 6.48 | 6.74 | 6.41 |  |  |  |
| Cc1cc2ncc(CN3CCN(c4ccccc4)CC3)n2cn1 |  |  |  |  |  | 20% | 0% | 0% |
| COc1ccc(N2CCN(Cc3c(C)nc4cc(C)ncn34)CC2)cc1 | 7.92 | 4.57 | 4.89 | 4.89 | 5.04 | 60% | 0% | 0% |
| COc1cc2ncc(CN3CCN(c4ccccc4OC)CC3)n2c(OC)n1 |  |  |  |  |  | 20% | 0% | 0% |
| Cn1c(N2CCCC2)nc2c(CN3CCN(c4ccccn4)CC3)c[nH]c2c1=O | 8.55 | 6.10 | 6.51 | 6.82 | 6.57 |  |  |  |
| COc1ccccc1N1CCN(Cc2cnc3cc(C)ncn23)CC1 |  |  |  |  |  | 0% | 0% | 0% |
| Cn1c(N2CCOCC2)nc2c(CN3CCN(c4ccccc4)CC3)c[nH]c2c1=O | 7.60 | 6.28 | 5.57 | 6.14 | 5.96 |  |  |  |
| Cc1cc2nc(C)c(CN3CCN(c4ccccc4)CC3)n2c(C)n1 | 7.15 | 4.96 | 5.38 | 4.96 | 5.07 |  |  |  |
| Cn1c(N2CCCC2)nc2c(CN3CCN(c4ccc(Cl)c(Cl)c4)CC3)c[nH]c2c1=O | 8.47 | 5.82 | 6.32 | 6.42 | 6.24 |  |  |  |
| COc1ccccc1N1CCN(Cc2c(C)[nH]c3nc(N(C)C)ncc23)CC1 | 8.19 | 5.17 | 5.21 | 5.54 | 5.59 | 80% | 0% | 20% |
| COc1ccc(N2CCN(Cc3c(C)nc4cc(C)nc(C)n34)CC2)cc1 | 6.02 | 5.18 | 8.07 | 6.80 | 6.59 | 0% | 0% | 0% |

Now from value to molecule:

| pKi (D(4) dopamine receptor) | pKi (D(1A) dopamine receptor) | pKi (D(3) dopamine receptor) | pKi (D(2) dopamine receptor [1]) | pKi (D(2) dopamine receptor [2]) | Activity [3] | Activity [4] | Activity (D(2) dopamine receptor [5]) | SMILES |
| --- | --- | --- | --- | --- | --- | --- | --- | --- |
|  |  |  |  |  | 0% | 0% | 0% | Cc1cc2nc(C)c(CN3CCN(c4ccc(Cl)cc4)CC3)n2cn1 |
|  |  |  |  |  | 0% | 0% | 0% | COc1ccc(N2CCN(Cc3c(C)[nH]c4nc(N(C)C)ncc34)CC2)cc1 |
|  |  |  |  |  | 0% | 0% | 0% | Cc1cc2ncc(CN3CCN(c4ccc(Cl)c(Cl)c4)CC3)n2c(C)n1 |
|  |  |  |  |  | 0% | 0% | 0% | Cc1cc2ncc(CN3CCN(c4ccc(Cl)c(Cl)c4)CC3)n2cn1 |
|  |  |  |  |  | 0% | 0% | 0% | COc1ccc(N2CCN(Cc3cnc4cc(C)ncn34)CC2)cc1 |
|  |  |  |  |  | 0% | 0% | 20% | COc1ccc(N2CCN(Cc3cnc4cc(OC)nc(OC)n34)CC2)cc1 |
|  |  |  |  |  | 20% | 0% | 0% | Cc1cc2nc(C)c(CN3CCN(c4ccc(Cl)c(Cl)c4)CC3)n2cn1 |
|  |  |  |  |  | 0% | 0% | 0% | Cc1cc2ncc(CN3CCN(c4ccccn4)CC3)n2c(C)n1 |
| 6.92 | 4.66 | 6.19 | 5.00 | 4.77 |  |  |  | Cc1cc2nc(C)c(CN3CCN(c4ccccn4)CC3)n2c(C)n1 |
|  |  |  |  |  | 0% | 0% | 0% | Cc1cc2ncc(CN3CCN(c4ccccc4)CC3)n2c(C)n1 |
| 7.85 | 5.08 | 5.47 | 5.54 | 5.64 | 60% | 0% | 0% | COc1ccccc1N1CCN(Cc2c(C)nc3cc(C)nc(C)n23)CC1 |
|  |  |  |  |  | 40% | 0% | 0% | Cc1cc2nc(C)c(CN3CCN(c4ccccn4)CC3)n2cn1 |
|  |  |  |  |  | 0% | 0% | 0% | CCOC(=O)c1nc2cc(C)nc(C)n2c1CN1CCN(c2ccccc2OC)CC1 |
| 6.44 | 4.92 | 4.66 | 5.46 | 5.33 |  |  |  | Cc1cc2nc(C)c(CN3CCN(c4ccc(F)cc4)CC3)n2c(C)n1 |
| 7.18 | 4.96 | 5.82 | 6.24 | 5.89 |  |  |  | COc1ccccc1N1CCN(Cc2cnc3cc(C)nc(C)n23)CC1 |
|  |  |  |  |  | 0% | 0% | 0% | CCOC(=O)c1nc2cc(C)nc(C)n2c1CN1CCN(c2ccc(OC)cc2)CC1 |
|  |  |  |  |  | 0% | 0% | 0% | Cc1cc2ncc(CN3CCN(c4ccc(Cl)cc4)CC3)n2c(C)n1 |
|  |  |  |  |  | 0% | 0% | 0% | Cc1cc2ncc(CN3CCN(c4ccc(Cl)cc4)CC3)n2cn1 |
|  |  |  |  |  | 0% | 0% | 0% | Cc1cc2nc(C)c(CN3CCN(c4ccccc4)CC3)n2cn1 |
| 7.18 | 5.15 | 5.51 | 4.24 | 4.59 |  |  |  | Cc1cc2nc(C)c(CN3CCN(c4ccc(Cl)cc4)CC3)n2c(C)n1 |
|  |  |  |  |  | 0% | 0% | 0% | COc1ccc(N2CCN(Cc3cnc4cc(C)nc(C)n34)CC2)cc1 |
